Experimental data taken from US20100240537A1, “Substituted 6-(alkylbenzylamino)purine derivatives for use as cytokinin receptor antagonists and preparations containing these derivatives” (priority 2007, published 2010).

What was measured:
Format in all cases: cell-based
[1] = tested on: cytokinin-dependent tobacco callus Nicotiana tabacum L. cv. Wisconsin 38; experiment: Cytokinin-dependent tobacco callus bioassay; conditions: for activity (%) [10^−6 mol · l^−1 BA = 100%]: at concentration with highest activity, n.a. means inactive; for concentration with highest activity: callus fresh weight after four weeks
Method: Stimulatory effect of newly prepared derivatives was tested using cytokinin-dependent tobacco callus. The cytokinin-dependent tobacco callus Nicotiana tabacum L. cv. Wisconsin 38 was maintained at 25° C. in darkness on modified MS medium, containing per 1 liter: 4 μmol of nicotinic acid, 2.4 μmol of pyridoxine hydrochloride, 1.2 μmol of thiamine, 26.6 μmol of glycine, 1.37 μmol of glutamine, 1.8 μmol of myo-inositol, 30 g of sucrose, 8 g of agar, 5.37 μmol of NAA and 0.5 μmol of the compound tested. Subcultivation was carried out every three weeks. Fourteen days before the bioassay, the callus tissue was transferred to the media without 6-benzylaminopurine. The biological activity was determined from the increase of the fresh callus weight after four weeks of cultivation. Five replicates were prepared for each concentration of the compound tested and the entire test was repeated twice. […] The compounds to be tested were dissolved in dimethylsulfoxide (DMSO) and the solution brought up to 10^−3M with distilled water. This stock solution was further diluted with the respective media used for the biotest to a concentration ranging from 10^−8M to 10^−4M.
From the obtained data, the concentration with the highest activity was selected for each compound tested. Relative activity of the compound at this concentration was calculated (Table 3). The activity obtained for 10^−6 M of the control substance 6-benzylaminopurine was postulated as 100% biological activity. […]

AHK3 = target: T1, AHK3 (Arabidopsis thaliana, UniProt Q9C5U1); experiment: Activation of cytokinin receptor AHK3 in E. coli KMI001 (β-galactosidase reporter); conditions: E. coli KMI001 pSTV28-AHK3, 28 h incubation, n.i. means without interaction
T1 construct: expressed in transfected cells; host or cells: Escherichia coli KMI001, plasmid pSTV28-AHK3
T1 sequence (Q9C5U1 1-1036): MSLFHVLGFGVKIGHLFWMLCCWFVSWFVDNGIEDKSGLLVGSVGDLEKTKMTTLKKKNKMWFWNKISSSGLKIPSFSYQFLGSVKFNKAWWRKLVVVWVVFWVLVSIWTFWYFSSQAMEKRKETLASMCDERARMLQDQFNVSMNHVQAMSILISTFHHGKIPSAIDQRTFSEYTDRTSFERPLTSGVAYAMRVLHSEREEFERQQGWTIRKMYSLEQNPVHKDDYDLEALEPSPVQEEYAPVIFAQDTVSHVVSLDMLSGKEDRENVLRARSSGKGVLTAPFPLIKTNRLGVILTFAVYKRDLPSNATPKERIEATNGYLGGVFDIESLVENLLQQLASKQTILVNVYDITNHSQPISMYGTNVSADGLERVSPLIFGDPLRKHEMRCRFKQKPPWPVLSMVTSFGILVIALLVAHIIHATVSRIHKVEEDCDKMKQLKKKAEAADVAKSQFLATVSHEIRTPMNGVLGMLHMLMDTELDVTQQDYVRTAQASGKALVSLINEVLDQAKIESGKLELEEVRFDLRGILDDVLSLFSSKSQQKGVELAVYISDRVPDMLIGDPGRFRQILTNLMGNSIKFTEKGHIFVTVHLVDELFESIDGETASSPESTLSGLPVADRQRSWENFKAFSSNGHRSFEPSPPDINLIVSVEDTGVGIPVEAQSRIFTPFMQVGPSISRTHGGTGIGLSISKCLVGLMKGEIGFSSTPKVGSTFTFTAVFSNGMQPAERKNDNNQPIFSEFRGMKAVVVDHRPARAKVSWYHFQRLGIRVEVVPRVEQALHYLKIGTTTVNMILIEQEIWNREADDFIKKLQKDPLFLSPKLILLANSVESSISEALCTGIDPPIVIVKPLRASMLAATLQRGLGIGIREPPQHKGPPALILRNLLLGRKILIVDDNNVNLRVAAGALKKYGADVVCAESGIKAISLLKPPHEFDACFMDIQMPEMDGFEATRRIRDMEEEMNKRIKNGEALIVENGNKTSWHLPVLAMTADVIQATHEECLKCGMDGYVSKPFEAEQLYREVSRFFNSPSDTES
Method: (§1) Escherichia coli strains KMI001 harbouring the plasmid pIN-III-AHK4 or pSTV28-AHK3 were grown overnight at 25° C. in M9 media enriched with 0.1% casamino acids to OD600˜1. The preculture was diluted 1:600 in 1 ml M9 medium containing 0.1% casamino acids and 1 μl stock solution of either the tested compound (10^−7 M−5×10^−5 M) or solvent control (DMSO, ethanol, methanol) were added. The cultures were further grown at 25° C. in microtiter plate, 200 μl per well. […] The cultures were centrifuged and 50 μl aliquots of the supernatant were transferred to microtiter plate containing 2 μl 50 mM 4-methyl umbelliferyl galactoside which was subsequently incubated for 1 h at 37° C. The reaction was stopped by adding 100 μl 0.2 M Na2CO3. Fluorescence was measured using a Fluoroscan Ascent (Labsystems, Finland) at the excitation and emission wavelengths of 365 and 460 nm, respectively. The OD600 of remaining culture was determined and β-galactosidase activity was calculated as nmol 4-methylumbelliferone×OD600^−1×h^−1.
(§2) The EC50 value, the compound concentration activating the receptor to 50%, was calculated from the obtained dose response curves. The compound functioning as cytokinin antagonists should not activate cytokinin signalling pathway. The values shown in Table 2 are means of three replicates and the entire test was repeated at least twice.

CRE1/AHK4 = target: T2, CRE1/AHK4 (Arabidopsis thaliana, UniProt Q9C5U0); experiment: Activation of cytokinin receptor CRE1/AHK4 in E. coli KMI001 (β-galactosidase reporter); conditions: E. coli KMI001 pIN-III-AHK4, 17 h incubation; n.i. means without interaction
T2 construct: expressed in transfected cells; host or cells: Escherichia coli KMI001, plasmid pIN-III-AHK4
Method: as §1, §2

T2 sequence (Q9C5U0 whole entry): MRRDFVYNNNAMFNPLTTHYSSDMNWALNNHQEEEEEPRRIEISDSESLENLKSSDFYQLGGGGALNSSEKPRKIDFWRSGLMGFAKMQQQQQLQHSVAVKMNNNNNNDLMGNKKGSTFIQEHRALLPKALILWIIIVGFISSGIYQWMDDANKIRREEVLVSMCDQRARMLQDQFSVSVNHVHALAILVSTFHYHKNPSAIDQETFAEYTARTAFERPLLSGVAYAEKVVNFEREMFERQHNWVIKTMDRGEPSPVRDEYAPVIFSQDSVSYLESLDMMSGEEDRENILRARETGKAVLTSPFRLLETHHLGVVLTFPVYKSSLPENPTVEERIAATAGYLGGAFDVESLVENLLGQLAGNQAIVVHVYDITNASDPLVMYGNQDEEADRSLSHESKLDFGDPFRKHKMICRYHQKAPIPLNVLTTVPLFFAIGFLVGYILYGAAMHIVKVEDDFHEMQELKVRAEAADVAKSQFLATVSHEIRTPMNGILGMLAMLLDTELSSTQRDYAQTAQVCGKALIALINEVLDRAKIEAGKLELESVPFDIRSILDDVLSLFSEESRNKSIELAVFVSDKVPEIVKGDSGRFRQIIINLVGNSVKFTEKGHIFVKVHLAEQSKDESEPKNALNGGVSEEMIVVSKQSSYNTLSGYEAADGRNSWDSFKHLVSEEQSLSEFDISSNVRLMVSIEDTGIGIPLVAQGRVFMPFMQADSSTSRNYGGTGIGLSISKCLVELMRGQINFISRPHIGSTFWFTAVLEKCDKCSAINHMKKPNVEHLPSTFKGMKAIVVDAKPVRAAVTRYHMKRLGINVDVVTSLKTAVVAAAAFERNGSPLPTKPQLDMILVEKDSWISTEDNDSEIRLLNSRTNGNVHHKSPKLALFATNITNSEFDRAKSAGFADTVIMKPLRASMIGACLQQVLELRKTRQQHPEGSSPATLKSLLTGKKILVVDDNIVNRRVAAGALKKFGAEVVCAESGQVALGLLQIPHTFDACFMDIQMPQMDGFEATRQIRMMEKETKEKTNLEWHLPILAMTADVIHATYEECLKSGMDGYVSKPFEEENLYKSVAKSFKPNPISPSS

Row | Compound | activity (%) [10^−6 mol · l^−1 BA = 100%] [1] | concentration with highest activity [1] | EC50 AHK3 (activation of cytokinin receptor) (AHK3) | EC50 CRE1/AHK4 (activation of cytokinin receptor) (CRE1/AHK4) | EC50 (AHK3; read-out: EC50 AHK3 (activation of cytokinin receptor))
1 | 6-(2-thio-5-methylbenzylamino)purine [Compound 19] | 1.3 (±1) % | 10^−4 mol.l^−1 | n.i | n.i. | –
2 | Cc1cccc(CNc2ncnc3nc[nH]c23)c1N [Compound 1, 6-(2-amino-3-methylbenzylamino)purine] | – | – | n.i | n.i. | –
3 | Cc1ccc(CNc2ncnc3nc[nH]c23)c(N)c1 [Compound 2, 6-(2-amino-4-methylbenzylamino)purine] | – | – | n.i | n.i. | –
4 | Cc1ccc(N)c(CNc2ncnc3nc[nH]c23)c1 [Compound 3, 6-(2-amino-5-methylbenzylamino)purine] | – | – | n.i | n.i. | –
5 | CCc1cccc(CNc2ncnc3nc[nH]c23)c1N [Compound 4, 6-(2-amino-3-ethylbenzylamino)purine] | – | – | n.i | n.i. | –
6 | CCc1ccc(N)c(CNc2ncnc3nc[nH]c23)c1 [Compound 5, 6-(2-amino-5-ethylbenzylamino)purine] | – | – | n.i | n.i. | –
7 | Cc1ccc(CNc2ncnc3nc[nH]c23)c(O)c1 [Compound 9, 6-(2-hydroxy-4-methylbenzylamino)purine] | – | – | n.i | n.i. | –
8 | Cc1cccc(O)c1CNc1ncnc2nc[nH]c12 [Compound 11, 6-(2-hydroxy-6-methylbenzylamino)purine] | 23 (±5) % | 10^−4 mol.l^−1 | n.i | n.i. | –
9 | CCc1cccc(CNc2ncnc3nc[nH]c23)c1O [Compound 12, 6-(2-hydroxy-3-ethylbenzylamino)purine] | – | – | n.i | n.i. | –
10 | CCc1ccc(O)c(CNc2ncnc3nc[nH]c23)c1 [Compound 13, 6-(2-hydroxy-5-ethylbenzylamino)purine] | – | – | n.i | n.i. | –
11 | Cc1cccc(CNc2ncnc3nc[nH]c23)c1[N+](=O)[O-] [Compound 15, 6-(2-nitro-3-methylbenzylamino)purine] | – | – | – | n.i. | > 100 µM
12 | Cc1ccc([N+](=O)[O-])c(CNc2ncnc3nc[nH]c23)c1 [Compound 16, 6-(2-nitro-5-methylbenzylamino)purine] | – | – | n.i | n.i. | –
13 | CCc1cccc(CNc2ncnc3nc[nH]c23)c1[N+](=O)[O-] [Compound 17, 6-(2-nitro-3-ethylbenzylamino)purine] | – | – | n.i | n.i. | –
14 | Cc1cc(C)c(N)c(CNc2ncnc3nc[nH]c23)c1 [Compound 21, 6-(2-amino-3,5-dimethylbenzylamino)purine] | – | – | n.i | n.i. | –
15 | Cc1cc(C)c(O)c(CNc2ncnc3nc[nH]c23)c1 [Compound 23, 6-(2-hydroxy-3,5-dimethylbenzylamino)purine] | – | – | n.i | n.i. | –
16 | Cc1ccc(CNc2ncnc3nc[nH]c23)c(O)c1C [Compound 24, 6-(2-hydroxy-3,4-dimethylbenzylamino)purine] | – | – | n.i | n.i. | –
